Data set [1] has as its system Plasma. Description: (§1) Effect on blood coagulation parameters in plasma isolated from hemophilia A patient assessed as clotting time at […] by rotation thromboelastography (reference value: 2907 secs). The class given is functional, Homo sapiens.
Data set [2] concerns Plasma. Described as §1. The class given is functional, Homo sapiens. The source holds these as a separate data set.
The subject of data set [3] is Plasma. Description: Effect on blood coagulation parameters in plasma isolated from hemophilia A patient assessed as clotting time at 40 nM by rotation thromboelastography (reference value: 2907 secs). It is filed as functional, Homo sapiens.
In data set [4] the test system is Plasma. As to the kind of experiment: Effect on blood coagulation parameters in plasma isolated from hemophilia A patient assessed as clotting time at 120 nM by rotation thromboelastography (reference value: 2907 secs). The class given is functional, Homo sapiens.
Data set [5] has as its system Plasma. Description: (§2) Effect on blood coagulation parameters in plasma isolated from hemophilia A patient assessed as clot formation time at […] by rotation thromboelastography (reference value: 1540 secs). It is filed as functional, Homo sapiens.
The test system of data set [6] is Plasma. Described as §2. It is filed as functional, Homo sapiens. The source holds these as a separate data set.
The test system of data set [7] is Plasma. As to the kind of experiment: Effect on blood coagulation parameters in plasma isolated from hemophilia A patient assessed as clot formation time at 40 nM by rotation thromboelastography (reference value: 1540 secs). The class given is functional, Homo sapiens.
For data set [8], the system named is Plasma. As to the kind of experiment: Effect on blood coagulation parameters in plasma isolated from hemophilia A patient assessed as clot formation time at 120 nM by rotation thromboelastography (reference value: 1540 secs). The class given is functional, Homo sapiens.
For data set [9], the system named is Plasma. As to the kind of experiment: Effect on blood coagulation parameters in plasma isolated from hemophilia A patient assessed as maximum clot firmness at 40 nM by rotation thromboelastography. The class given is functional, Homo sapiens.
Data set [10] has as its system Plasma. As to the kind of experiment: Effect on blood coagulation parameters in plasma isolated from hemophilia A patient assessed as maximum clot firmness at 120 nM by rotation thromboelastography. It is filed as functional, Homo sapiens.
Data set [11] concerns Plasma. As to the kind of experiment: (§3) Effect on blood coagulation parameters in plasma isolated from hemophilia A patient at […] by rotation thromboelastography (reference value: 0%). The class given is functional, Homo sapiens.
Data set [12] has as its system Plasma. The data set is described as §3. It is filed as functional, Homo sapiens. This is another data set of the same source.
Data set [13] deals with Plasma. As to the kind of experiment: Effect on blood coagulation parameters in plasma isolated from hemophilia A patient at 40 nM by rotation thromboelastography (reference value: 0%). It is filed as functional, Homo sapiens.
For data set [14], the system named is Plasma. Description: Effect on blood coagulation parameters in plasma isolated from hemophilia A patient at 120 nM by rotation thromboelastography (reference value: 0%). The class given is functional, Homo sapiens.
A short description of data set [15]: Stability in human plasma assessed as parent compound remaining after 24 hrs. The class given is ADME, cell-free. The settings on record: read-out: Stability.
Data set [16] is described as follows: Stability in mouse plasma assessed as parent compound remaining after 24 hrs. It is filed as ADME, cell-free. The settings on record: read-out: Stability.
The subject of data set [17] is Callithrix. The settings on record: Plasma, 10 uM.
Data set [18] concerns the target T1, Tissue factor pathway inhibitor (Homo sapiens, UniProt P10646).
T1 sequence (P10646 whole entry): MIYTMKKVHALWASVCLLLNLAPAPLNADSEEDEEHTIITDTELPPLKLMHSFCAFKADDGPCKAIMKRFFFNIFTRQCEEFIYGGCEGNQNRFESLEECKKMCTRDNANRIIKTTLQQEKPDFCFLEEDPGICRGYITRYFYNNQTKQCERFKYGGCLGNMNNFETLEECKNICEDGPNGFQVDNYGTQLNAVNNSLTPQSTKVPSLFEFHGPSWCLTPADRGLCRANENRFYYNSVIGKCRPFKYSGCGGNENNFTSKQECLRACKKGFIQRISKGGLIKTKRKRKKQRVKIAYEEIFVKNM
Description: Inhibition of TFPI in human plasma with induced factor-8 deficiency assessed as increase in thrombin generation by measuring FEIBA at 10 uM using thrombin-specific fluorogenic substrate Z-Gly-Gly-Arg-AMC by calibrated automated thrombography. The class given is cell-free.

In data set [19] the target is Tissue factor pathway inhibitor (Homo sapiens) (UniProt P10646). Description: Inhibition of TFPI in human plasma with induced factor-8 deficiency assessed as increase in thrombin generation by measuring FEIBA at 10 uM using thrombin-specific fluorogenic substrate Z-Gly-Gly-Arg-AMC by calibrated automated thrombography relative to inhibitory polyclonal anti-TFPI antibody. It is filed as cell-free.

SMILES strings stand for the structures. Calls of active or inactive are those of the source. The calls are words filed in the database; no cut-off is given here.

By inhibition is commonly meant the drop in the measured response relative to a control, in per cent. The EC50 is the midpoint of the concentration-response curve.

On to `CCN1C(=O)CC(SC[C@H](NC(=O)[C@H](CC(C)C)NC(=O)[C@H](CCCCN)NC(=O)[C@H](C)NC(=O)C(C)(C)NC(=O)[C@H](CC(C)C)NC(=O)[C@H](CCCNC(=N)N)NC(=O)[C@H](CCC(=O)O)NC(=O)[C@H](Cc2ccccc2)NC(=O)[C@H](Cc2ccc(O)cc2)NC(=O)CNC(=O)[C@H](CC(=O)O)NC(=O)[C@@H](NC(=O)[C@H](Cc2cnc[nH]2)NC(=O)[C@@H](NC(=O)[C@H](CC(N)=O)NC(=O)[C@H]2CCCN2C(=O)[C@H](CCCCN)NC(=O)[C@H](CO)NC(=O)[C@H](CCC(N)=O)NC(=O)[C@H](Cc2ccccc2)NC(C)=O)C(C)C)C(C)C)C(N)=O)C1=O` (some centres undefined), for which the Time in data set [1] is recorded as 2901 s; in [2], 2249 s; in [3] it was 1143 s; in [4] it was 853 s; in data set [5], 2488 s; in data set [6], 1480 s. The Time is recorded as 457 s in data set [7] and 219 s in [8]. The Activity in data set [9] was 64 mm; in data set [10], 64 mm; in data set [11], 0%; in data set [12] it was 44%; in data set [13], 119%; in data set [14], 139%. Besides, the remaining at 24 h in [15] is 10 to 23.8%; in [16] it was 10 to 15.9%.
In the case of `CSCC[C@@H]1NC(=O)[C@H](C)NC(=O)[C@@H](NC(=O)[C@H](Cc2cnc[nH]2)NC(=O)[C@H](Cc2c[nH]c3ccccc23)NC(=O)[C@H](CCCCN)NC(=O)[C@H](Cc2ccc(O)cc2)NC(=O)[C@H](Cc2ccc(O)cc2)NC(=O)[C@H](CO)NC(C)=O)CSSC[C@@H](C(=O)N[C@H](C(=O)N[C@@H](Cc2c[nH]c3ccccc23)C(=O)N[C@H](C(=O)N[C@@H](CCCCN)C(=O)N[C@@H](Cc2ccccc2)C(N)=O)C(C)C)C(C)C)NC(=O)[C@H]([C@@H](C)O)NC(=O)[C@H](CCSC)NC(=O)[C@H]([C@@H](C)O)NC(=O)CNC(=O)[C@@H](CCCCN)NC(=O)[C@H](CCSC)NC(=O)[C@H](CC(=O)O)NC(=O)[C@H](CCCNC(=N)N)NC1=O`, in [17], the inhibition result was “inactive”.
Regarding `CSCC[C@@H]1NC(=O)[C@H](C)NC(=O)[C@H](NC(=O)[C@H](Cc2cnc[nH]2)NC(=O)[C@H](Cc2c[nH]c3ccccc23)NC(=O)[C@H](CCCCN)NC(=O)[C@H](Cc2ccc(O)cc2)NC(=O)[C@H](Cc2cnc[nH]2)NC(=O)[C@H](CO)NC(C)=O)CSSC[C@@H](C(=O)N[C@H](C(=O)N[C@@H](Cc2c[nH]c3ccccc23)C(=O)N[C@H](C(=O)N[C@@H](CCCCN)C(=O)N[C@@H](Cc2ccccc2)C(N)=O)C(C)C)C(C)C)NC(=O)[C@H](CO)NC(=O)[C@H](CCSC)NC(=O)[C@H]([C@@H](C)O)NC(=O)CNC(=O)[C@H]([C@@H](C)O)NC(=O)[C@H](CCSC)NC(=O)[C@H](CC(=O)O)NC(=O)[C@H](CCCNC(=N)N)NC1=O`, the EC50 in data set [18] came out at 4.8 nM. Further, the inhibition in data set [19] worked out at 55.9%.
